Laboratory results: ChEMBL document CHEMBL5291721, “A preclinical secondary pharmacology resource illuminates target-adverse drug reaction associations of marketed drugs” (Nat Commun, 2023)

Assays:
[1] = molecular target: 3',5'-cyclic-AMP phosphodiesterase 4D (Homo sapiens, UniProt Q08499); format: functional
[2] = molecular target: Adenosine receptor A2a (Homo sapiens, UniProt P29274)
[3] = molecular target: T1, Gastrin/cholecystokinin type B receptor (Homo sapiens, UniProt P32239)
T1 sequence (P32239 whole entry): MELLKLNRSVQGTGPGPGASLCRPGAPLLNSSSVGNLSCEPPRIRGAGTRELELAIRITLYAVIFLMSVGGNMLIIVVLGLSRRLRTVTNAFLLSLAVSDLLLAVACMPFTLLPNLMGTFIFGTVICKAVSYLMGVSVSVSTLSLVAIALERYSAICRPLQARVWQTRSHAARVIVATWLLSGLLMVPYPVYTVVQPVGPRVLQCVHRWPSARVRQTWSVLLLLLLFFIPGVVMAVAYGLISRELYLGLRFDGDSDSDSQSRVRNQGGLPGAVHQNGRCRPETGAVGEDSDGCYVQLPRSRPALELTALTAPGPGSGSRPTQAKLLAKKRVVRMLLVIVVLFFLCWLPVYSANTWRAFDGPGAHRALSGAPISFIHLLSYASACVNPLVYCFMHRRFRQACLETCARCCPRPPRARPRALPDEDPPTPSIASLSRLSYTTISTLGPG

[4] = molecular target: 5-hydroxytryptamine receptor 2B (Homo sapiens, UniProt P41595); format: functional, cell-based
[5] = molecular target: T2, Adenosine receptor A3 (Homo sapiens, UniProt P0DMS8)
T2 sequence (P0DMS8 whole entry): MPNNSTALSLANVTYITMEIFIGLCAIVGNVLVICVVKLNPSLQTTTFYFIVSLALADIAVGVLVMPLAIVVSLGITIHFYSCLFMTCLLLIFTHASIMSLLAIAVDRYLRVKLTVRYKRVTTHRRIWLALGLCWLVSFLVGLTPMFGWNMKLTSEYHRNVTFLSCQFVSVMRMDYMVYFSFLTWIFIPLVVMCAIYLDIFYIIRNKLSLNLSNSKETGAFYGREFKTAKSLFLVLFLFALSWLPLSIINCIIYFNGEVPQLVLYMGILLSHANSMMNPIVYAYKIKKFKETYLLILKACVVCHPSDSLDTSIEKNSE

[6] = molecular target: T3, Equilibrative nucleoside transporter 1 (Homo sapiens, UniProt Q99808)
T3 sequence (Q99808 whole entry): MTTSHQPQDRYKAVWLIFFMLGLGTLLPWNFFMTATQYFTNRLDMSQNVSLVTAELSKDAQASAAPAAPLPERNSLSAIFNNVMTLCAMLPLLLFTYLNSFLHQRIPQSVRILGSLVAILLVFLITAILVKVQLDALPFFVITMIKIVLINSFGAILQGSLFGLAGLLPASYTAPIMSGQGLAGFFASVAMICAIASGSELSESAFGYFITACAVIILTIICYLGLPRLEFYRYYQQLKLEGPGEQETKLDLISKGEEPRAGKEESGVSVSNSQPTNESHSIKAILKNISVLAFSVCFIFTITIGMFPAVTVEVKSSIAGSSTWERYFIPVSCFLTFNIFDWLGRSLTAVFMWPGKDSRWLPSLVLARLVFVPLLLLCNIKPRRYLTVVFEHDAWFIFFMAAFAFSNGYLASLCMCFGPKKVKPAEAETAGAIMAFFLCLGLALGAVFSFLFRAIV

[7] = molecular target: cGMP-inhibited 3',5'-cyclic phosphodiesterase 3A (Homo sapiens, UniProt Q14432); format: functional
[8] = molecular target: Neuronal acetylcholine receptor subunit alpha-4 (Homo sapiens, UniProt P43681)
[9] = molecular target: Delta-type opioid receptor (Homo sapiens, UniProt P41143)
[10] = molecular target: T4, 5-hydroxytryptamine receptor 1A (Homo sapiens, UniProt P08908); format: functional, cell-based
T4 sequence (P08908 whole entry): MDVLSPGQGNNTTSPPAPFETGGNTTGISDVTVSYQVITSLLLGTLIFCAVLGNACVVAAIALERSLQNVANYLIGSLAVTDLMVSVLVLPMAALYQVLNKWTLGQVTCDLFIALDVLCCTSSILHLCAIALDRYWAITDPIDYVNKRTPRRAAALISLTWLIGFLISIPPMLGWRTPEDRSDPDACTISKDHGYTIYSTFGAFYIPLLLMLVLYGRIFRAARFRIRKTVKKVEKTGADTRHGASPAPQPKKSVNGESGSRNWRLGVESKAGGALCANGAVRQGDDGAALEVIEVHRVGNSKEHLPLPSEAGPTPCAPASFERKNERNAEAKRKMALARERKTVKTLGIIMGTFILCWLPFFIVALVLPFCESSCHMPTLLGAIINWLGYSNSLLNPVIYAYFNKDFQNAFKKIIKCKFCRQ

[11] = molecular target: T5, Alpha-1A adrenergic receptor (Homo sapiens, UniProt P35348); format: functional, cell-based
T5 sequence (P35348 whole entry): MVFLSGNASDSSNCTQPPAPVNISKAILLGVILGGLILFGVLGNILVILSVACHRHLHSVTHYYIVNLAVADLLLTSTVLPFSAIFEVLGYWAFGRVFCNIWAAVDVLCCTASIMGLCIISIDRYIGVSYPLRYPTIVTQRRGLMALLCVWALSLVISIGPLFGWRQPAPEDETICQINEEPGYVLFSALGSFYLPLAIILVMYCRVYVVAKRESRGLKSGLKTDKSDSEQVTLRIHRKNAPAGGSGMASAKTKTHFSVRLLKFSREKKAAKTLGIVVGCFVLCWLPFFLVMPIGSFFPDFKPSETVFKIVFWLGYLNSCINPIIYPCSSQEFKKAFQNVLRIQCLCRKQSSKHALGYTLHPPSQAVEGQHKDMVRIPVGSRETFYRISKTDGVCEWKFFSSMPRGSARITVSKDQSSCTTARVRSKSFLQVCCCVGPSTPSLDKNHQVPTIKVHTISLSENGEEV
Note: assay procedure not described here.

Chain of Adenosine receptor A2a (P29274 whole entry): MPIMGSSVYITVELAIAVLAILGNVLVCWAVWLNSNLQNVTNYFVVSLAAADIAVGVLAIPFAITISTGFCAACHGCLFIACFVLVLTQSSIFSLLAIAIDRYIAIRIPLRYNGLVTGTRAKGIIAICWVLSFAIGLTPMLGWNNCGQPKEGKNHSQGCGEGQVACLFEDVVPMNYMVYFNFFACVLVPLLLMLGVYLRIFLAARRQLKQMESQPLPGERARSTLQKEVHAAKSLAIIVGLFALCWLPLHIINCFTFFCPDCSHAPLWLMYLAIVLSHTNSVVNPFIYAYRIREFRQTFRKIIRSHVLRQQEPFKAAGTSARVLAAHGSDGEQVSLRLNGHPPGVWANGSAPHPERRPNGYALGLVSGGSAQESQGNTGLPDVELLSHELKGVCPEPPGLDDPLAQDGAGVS
Chain of 5-hydroxytryptamine receptor 2B (P41595 whole entry): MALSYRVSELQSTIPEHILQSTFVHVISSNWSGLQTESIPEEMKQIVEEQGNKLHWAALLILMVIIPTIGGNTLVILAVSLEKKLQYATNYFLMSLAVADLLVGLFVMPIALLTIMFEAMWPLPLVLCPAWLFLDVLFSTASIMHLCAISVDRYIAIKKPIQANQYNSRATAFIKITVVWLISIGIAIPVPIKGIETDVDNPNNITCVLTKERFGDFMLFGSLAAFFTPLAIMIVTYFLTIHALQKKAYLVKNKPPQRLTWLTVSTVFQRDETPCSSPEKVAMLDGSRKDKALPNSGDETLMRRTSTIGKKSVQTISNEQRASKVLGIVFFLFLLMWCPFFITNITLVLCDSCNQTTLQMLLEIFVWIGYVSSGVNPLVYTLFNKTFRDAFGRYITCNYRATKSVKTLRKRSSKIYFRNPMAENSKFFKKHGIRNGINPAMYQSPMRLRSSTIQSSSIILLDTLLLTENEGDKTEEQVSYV
Chain of Delta-type opioid receptor (P41143 whole entry): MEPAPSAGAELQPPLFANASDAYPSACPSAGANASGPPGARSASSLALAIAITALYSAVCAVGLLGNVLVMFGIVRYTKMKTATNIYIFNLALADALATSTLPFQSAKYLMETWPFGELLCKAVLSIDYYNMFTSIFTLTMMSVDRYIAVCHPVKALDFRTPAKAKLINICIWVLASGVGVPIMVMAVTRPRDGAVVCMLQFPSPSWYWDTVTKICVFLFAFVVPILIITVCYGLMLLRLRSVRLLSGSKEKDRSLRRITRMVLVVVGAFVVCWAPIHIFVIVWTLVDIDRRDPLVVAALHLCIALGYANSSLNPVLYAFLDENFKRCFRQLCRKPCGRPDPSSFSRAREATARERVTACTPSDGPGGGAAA
Chain of 3',5'-cyclic-AMP phosphodiesterase 4D (Q08499 whole entry): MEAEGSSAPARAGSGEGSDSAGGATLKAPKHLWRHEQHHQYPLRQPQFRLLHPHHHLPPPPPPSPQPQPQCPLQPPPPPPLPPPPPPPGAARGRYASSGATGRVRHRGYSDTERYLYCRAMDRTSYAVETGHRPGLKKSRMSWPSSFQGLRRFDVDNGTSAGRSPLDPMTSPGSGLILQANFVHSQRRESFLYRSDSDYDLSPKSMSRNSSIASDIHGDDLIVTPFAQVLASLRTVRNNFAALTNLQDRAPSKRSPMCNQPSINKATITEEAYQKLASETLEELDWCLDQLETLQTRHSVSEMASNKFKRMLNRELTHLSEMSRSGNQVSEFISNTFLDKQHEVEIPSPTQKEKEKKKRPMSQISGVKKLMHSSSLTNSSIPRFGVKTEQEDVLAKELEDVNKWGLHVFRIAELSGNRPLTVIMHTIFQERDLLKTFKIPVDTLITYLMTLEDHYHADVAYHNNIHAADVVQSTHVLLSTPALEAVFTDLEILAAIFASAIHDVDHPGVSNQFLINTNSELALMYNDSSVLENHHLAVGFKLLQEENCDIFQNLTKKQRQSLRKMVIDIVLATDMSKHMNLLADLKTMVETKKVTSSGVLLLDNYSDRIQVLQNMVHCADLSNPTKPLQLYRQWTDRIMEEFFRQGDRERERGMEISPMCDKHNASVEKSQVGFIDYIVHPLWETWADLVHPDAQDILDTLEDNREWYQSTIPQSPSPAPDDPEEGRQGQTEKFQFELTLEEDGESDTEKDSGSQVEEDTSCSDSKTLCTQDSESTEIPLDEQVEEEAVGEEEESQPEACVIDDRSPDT
Chain of Neuronal acetylcholine receptor subunit alpha-4 (P43681 whole entry): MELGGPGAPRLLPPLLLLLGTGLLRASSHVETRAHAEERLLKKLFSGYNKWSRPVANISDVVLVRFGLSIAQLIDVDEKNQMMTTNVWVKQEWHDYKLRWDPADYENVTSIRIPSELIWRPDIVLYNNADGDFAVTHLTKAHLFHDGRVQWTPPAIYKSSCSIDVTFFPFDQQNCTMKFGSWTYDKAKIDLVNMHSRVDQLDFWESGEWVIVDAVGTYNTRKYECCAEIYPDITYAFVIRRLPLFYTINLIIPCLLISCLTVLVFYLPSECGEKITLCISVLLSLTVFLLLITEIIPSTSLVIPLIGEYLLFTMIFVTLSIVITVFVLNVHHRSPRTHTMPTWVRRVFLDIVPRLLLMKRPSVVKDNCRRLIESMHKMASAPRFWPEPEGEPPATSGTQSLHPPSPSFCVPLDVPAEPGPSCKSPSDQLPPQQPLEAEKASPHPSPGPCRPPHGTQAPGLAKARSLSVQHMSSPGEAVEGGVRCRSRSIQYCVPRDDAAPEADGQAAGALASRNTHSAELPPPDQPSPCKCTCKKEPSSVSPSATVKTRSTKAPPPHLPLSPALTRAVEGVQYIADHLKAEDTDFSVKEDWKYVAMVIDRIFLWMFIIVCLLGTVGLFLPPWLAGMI
Chain of cGMP-inhibited 3',5'-cyclic phosphodiesterase 3A (Q14432 whole entry): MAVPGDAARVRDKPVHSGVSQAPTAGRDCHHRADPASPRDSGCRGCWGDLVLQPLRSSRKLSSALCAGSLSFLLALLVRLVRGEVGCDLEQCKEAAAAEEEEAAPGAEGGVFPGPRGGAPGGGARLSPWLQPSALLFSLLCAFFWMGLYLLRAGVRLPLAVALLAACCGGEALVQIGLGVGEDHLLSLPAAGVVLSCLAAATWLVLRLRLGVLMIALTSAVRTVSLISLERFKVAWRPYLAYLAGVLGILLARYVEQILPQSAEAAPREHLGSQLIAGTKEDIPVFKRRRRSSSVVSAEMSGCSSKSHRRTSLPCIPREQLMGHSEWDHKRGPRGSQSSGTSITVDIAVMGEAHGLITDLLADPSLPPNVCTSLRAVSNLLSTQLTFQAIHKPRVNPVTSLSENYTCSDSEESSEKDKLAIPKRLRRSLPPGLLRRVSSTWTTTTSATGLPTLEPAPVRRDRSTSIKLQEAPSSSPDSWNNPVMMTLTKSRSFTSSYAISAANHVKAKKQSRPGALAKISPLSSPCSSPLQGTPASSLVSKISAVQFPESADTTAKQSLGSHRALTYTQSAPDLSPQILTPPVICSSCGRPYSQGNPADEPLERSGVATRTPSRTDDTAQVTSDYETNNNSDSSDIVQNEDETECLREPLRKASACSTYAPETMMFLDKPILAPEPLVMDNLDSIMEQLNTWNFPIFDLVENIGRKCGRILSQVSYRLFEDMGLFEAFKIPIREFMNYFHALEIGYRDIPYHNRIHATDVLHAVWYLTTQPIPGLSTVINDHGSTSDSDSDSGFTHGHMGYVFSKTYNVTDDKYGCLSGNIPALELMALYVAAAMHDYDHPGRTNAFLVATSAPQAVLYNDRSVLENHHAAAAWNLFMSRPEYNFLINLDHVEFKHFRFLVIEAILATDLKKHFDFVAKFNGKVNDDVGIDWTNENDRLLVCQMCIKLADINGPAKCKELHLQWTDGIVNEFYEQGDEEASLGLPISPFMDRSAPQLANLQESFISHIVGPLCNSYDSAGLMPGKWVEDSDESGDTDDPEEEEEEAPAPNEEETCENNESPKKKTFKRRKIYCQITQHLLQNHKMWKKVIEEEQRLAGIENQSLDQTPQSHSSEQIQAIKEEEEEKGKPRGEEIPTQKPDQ

Compound	AC50 [1] [µM]	AC50 [2] [µM]	AC50 [3] [µM]	AC50 [4] [µM]	AC50 [5] [µM]	AC50 [6] [µM]	AC50 [7] [µM]	AC50 [8] [µM]	AC50 [9] [µM]	AC50 [10] [µM]	AC50 [11] [µM]
Oc1ccc2c(c1)[C@@]13CCCC[C@@]1(O)[C@@H](C2)N(CC1CCC1)CC3 [BUTORPHANOL]	> 30	> 30	> 30	> 30	> 30	> 30	> 30	> 30	0.18	> 30	> 30
Cn1cnc2c(F)c(Nc3ccc(Br)cc3Cl)c(C(=O)NOCCO)cc21 [SELUMETINIB]	> 30	> 30			> 30	> 30	> 30	> 10			
CN(C(=O)c1c(O)c2ccccc2n(C)c1=O)c1ccccc1 [ROQUINIMEX]	> 30	> 30			> 30		> 30	> 30			> 30
Cc1ncc2n1-c1ccc(Cl)cc1C(c1ccccc1F)=NC2 [MIDAZOLAM]	10	> 30	> 30	> 10	> 30	> 30	> 30	> 10	> 30	> 30	> 30
C=C1/C(=C\C=C2/CCC[C@]3(C)[C@@H]([C@H](C)/C=C/[C@@H](O)C4CC4)CC[C@@H]23)C[C@@H](O)C[C@@H]1O [CALCIPOTRIENE]	> 30	> 30	> 30	> 30	12	> 30	> 30	> 30	> 30	27	> 30
C#CCOc1ccc(N)cc1C(=O)NCCCC [PARSALMIDE]	> 30	> 30	> 30	> 30	> 30		> 30	> 30	> 30	> 30	
CCC(COC(=O)c1cc(OC)c(OC)c(OC)c1)(c1ccccc1)N(C)C (stereo unspecified) [TRIMEBUTINE]	26	> 30	> 30	> 30	30		> 30	15	4	> 30	> 30
C/C(=C\C(=O)OCCCCCCCCC(=O)O)C[C@@H]1OC[C@H](C[C@@H]2O[C@H]2[C@@H](C)[C@H](C)O)[C@@H](O)[C@H]1O [MUPIROCIN]	> 30	> 10		> 10	> 10	> 30	> 30	> 10	> 30	> 10	
Cn1c(=O)cc(N2CCC[C@@H](N)C2)n(Cc2ccccc2C#N)c1=O [ALOGLIPTIN]	> 30	> 30	> 30		> 30	> 30	> 30	> 10	> 10		
O=C1CN=C(c2ccccn2)c2cc(Br)ccc2N1 [BROMAZEPAM]	> 30	> 10		> 10	> 10	> 10	> 30	> 10	> 30	> 10	11
CC(=O)[C@@]1(O)CC[C@H]2[C@@H]3C=C(Cl)C4=CC(=O)[C@@H]5C[C@@H]5[C@]4(C)[C@H]3CC[C@@]21C [CYPROTERONE]	> 10	> 10		> 10	> 10	> 10	16	> 10	> 30	> 10	
CCN1CCCC1CNC(=O)c1cc(S(=O)(=O)CC)c(N)cc1OC (stereo unspecified) [AMISULPRIDE]	> 30	> 30	> 30		> 30	> 30	> 30	> 30	> 30	> 30	> 30
Nc1cc(-c2ccncc2)c[nH]c1=O [INAMRINONE]		> 30	> 30	> 10	> 30	> 30		> 10	> 30	> 10	> 30
COc1cc2ncnc(Nc3ccc(F)c(Cl)c3)c2cc1NC(=O)/C=C/CN1CCCCC1 [DACOMITINIB ANHYDROUS]	25	> 30			21		> 30	> 30			> 30
CC(=O)[C@]1(O)Cc2c(O)c3c(c(O)c2[C@@H](O[C@H]2C[C@H](N)[C@H](O)[C@H](C)O2)C1)C(=O)c1ccccc1C3=O [IDARUBICIN]	> 30	> 30	> 30		20	> 30	> 30	> 30	19		
COc1cc2c(cc1OC)C(CCc1ccc(Cl)cc1)N(C)CC2 (stereo unspecified) [METHOPHOLINE]	> 30	> 30		> 10	> 30	> 30	> 30	> 30	> 30	> 10	
O=C1CN=C(c2ccccc2)c2cc([N+](=O)[O-])ccc2N1 [NITRAZEPAM]	30	> 10		> 10	> 10	> 10	> 30	> 10	> 30	> 10	
NC(=O)CN1CCCC1=O	> 30	> 30	> 30	> 30	> 30		> 30	> 30	> 30	> 30	> 30
OCc1cc(C(O)CNCCCCCCOCCCCc2ccccc2)ccc1O (stereo unspecified) [SALMETEROL]	> 30	> 30	> 30	> 10	> 30	> 30	> 30	> 10	> 30	5.4	
